Patent US20210196899A1, “MICRONEEDLE COATED WITH DRUG AND MANUFACTURING METHOD FOR SAME” (SR BIOTEK INC., priority 2018, published 2021)
No end group written: not given here.

System: Fibroblasts (CCD-986SK)
Test: Measurement of collagen content in cell line (Procollagen type I peptide EIA kit)
Type: cell-based
Settings: FIG. 4
Experimental: The culture supernatant was collected and the amount of collagen was measured as described below according to the guidelines of the Ministry of Food and Drug Safety, and the results thereof are shown in FIG. 4.
100 μl of an antibody-PoD conjugate solution was placed in each well, after which the culture solution and a standard solution were added in an amount of 20 μL thereto and cultured at 37° C. for 3 hr. The culture solution was removed from the well, followed by washing four times with 400 μL of a phosphate-buffered saline (PBS). 100 μL of a color development reagent (Procollagen type I peptide EIA kit, Takara Biomedical Co.) was added thereto, followed by culture at room temperature for 15 min, addition with 100 μL of 1 N sulfuric acid, and measurement at 450 nm using an ELISA reader.

Compound	collagen synthesis and promotion effects (50 to 200 ppm)	also measured
NCCCC[C@H](NC(=O)[C@H](Cc1c[nH]cn1)NC(=O)CNC(=O)CS)C(=O)O [GHK-TA]	–	collagen synthesis and promotion effects (concentration of 70 to 80 ppm, 24 hr): superior collagen synthesis and promotion effects
(EEMQRR)-TA: sulfhydryl-hexapeptide of Example 1-3-1-3; Chemical Formula 7 Glu-Glu-Met-Gln-Arg-Arg-X with linker X thioglycolic acid (TA) (EEMQRR-{thioglycolic acid})	–	collagen synthesis and promotion effects (thioglycolic acid (TA) as the linker compared to cysteine (CS) as the linker): superior collagen synthesis and promotion effects
KTTKS [reference compound]	increased in proportion to the concentration	–
KTTKS-TA: sulfhydryl KTTKS of Example 1-3-1-2; Chemical Formula 5 Lys-Thr-Thr-Lys-Ser-X with linker X thioglycolic acid (TA) (KTTKS-{thioglycolic acid})	vastly superior compared to KTTKS	–
